Assay results: publication PMC5944384 (Chemical Science, 2018)

What was measured:
[1] = tested on: HCT-15 colon cancer cells; assay: MTT cytotoxicity test, 72 h; format: cell-based, human; settings: read-out: IC50 HCT-15 colon
[2] = tested on: BCPAP thyroid cancer cells; assay: MTT cytotoxicity test, 72 h; format: cell-based, human; settings: read-out: IC50 BCPAP thyroid
[3] = tested on: PSN-1 pancreatic cancer cells; assay: MTT cytotoxicity test, 72 h; format: cell-based, human; settings: read-out: IC50 PSN-1 pancreas
LoVo colon cancer cells = assay: MTT cytotoxicity test, 72 h; format: cell-based, human; settings: read-out: IC50 LoVo colon
[4] = tested on: 2008 ovarian adenocarcinoma cells (cisplatin sensitive); assay: MTT cytotoxicity test, 72 h; format: cell-based, human; settings: read-out: IC50 2008 ovary
[5] = tested on: C13* ovarian cancer cells (cisplatin resistant); assay: MTT cytotoxicity test, 72 h; format: cell-based, human; settings: for Resistant factor (RF): IC50 resistant/parent line, C13*/2008; for IC50: read-out: IC50 C13* ovary, MTT, 72 h
[6] = tested on: panel of human cancer cell lines (HCT-15, BCPAP, PSN-1, LoVo, 2008, C13*); assay: MTT cytotoxicity test, average over the six cell lines; format: cell-based; settings: for IC50: read-out: Average IC50, average of one compound over the six cell lines
HEK293 cells [7] = assay: MTT cytotoxicity test in non-cancerous cells; format: cell-based, human; settings: for Selectivity index (SI) BCPAP: IC50 non-tumor (HEK293)/tumor cell line BCPAP; for Selectivity index (SI) LoVo: IC50 non-tumor (HEK293)/tumor cell line LoVo; for Selectivity index (SI) PSN-1: IC50 non-tumor (HEK293)/tumor cell line PSN-1; for IC50: read-out: IC50 HEK293, MTT, 72 h, non-cancerous cells
[8] = tested on: LoVo OXP colon cancer cells; assay: MTT cytotoxicity test, oxaliplatin resistant cells; format: cell-based, human; settings: IC50 resistant/parent line
[9] = Stability in phosphate buffer at 37 °C monitored by HPLC; format: physicochemical; settings: pH 7, HPLC, followed over days
COX-2 = target: T1, COX-2 (Homo sapiens, UniProt P35354); assay: COX-2 inhibition in treated cells; format: cell-based; settings: PSN-1 cells, 24 h, 1 μM
T1 sequence (P35354 18-604): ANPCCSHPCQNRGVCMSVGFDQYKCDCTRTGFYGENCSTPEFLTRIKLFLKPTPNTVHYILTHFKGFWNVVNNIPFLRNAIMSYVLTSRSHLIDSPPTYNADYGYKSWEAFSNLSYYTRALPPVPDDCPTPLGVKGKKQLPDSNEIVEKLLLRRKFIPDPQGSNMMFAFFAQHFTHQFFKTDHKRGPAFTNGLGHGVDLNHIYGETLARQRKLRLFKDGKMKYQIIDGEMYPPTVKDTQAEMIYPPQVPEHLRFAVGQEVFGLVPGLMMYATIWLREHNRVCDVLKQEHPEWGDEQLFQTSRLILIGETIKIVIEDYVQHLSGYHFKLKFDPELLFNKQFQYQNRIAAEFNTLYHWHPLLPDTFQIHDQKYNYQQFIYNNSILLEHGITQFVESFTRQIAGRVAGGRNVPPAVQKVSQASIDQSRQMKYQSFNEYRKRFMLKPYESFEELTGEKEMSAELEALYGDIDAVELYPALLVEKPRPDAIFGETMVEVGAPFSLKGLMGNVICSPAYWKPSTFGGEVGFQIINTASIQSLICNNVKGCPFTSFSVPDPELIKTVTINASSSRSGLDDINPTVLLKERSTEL

PSN-1 cells [10] = assay: Mitochondrial membrane potential; format: cell-based, human; settings: 24 h, 1 μM
PSN-1 cells [11] = assay: ROS production; format: cell-based, human; settings: 10 μM, compared with antimycin A
HEK293 cells [12] = assay: ROS production in non-cancerous cells; format: cell-based, human; settings: 10 µM
HEK293 cells [13] = assay: Mitochondrial membrane potential in non-cancerous cells; format: cell-based, human; settings: 24 h, 1 µM
PSN-1 3D spheroids = assay: Cytotoxicity in 3D spheroid cultures, APH test; settings: for IC50: read-out: IC50 PSN-1 3D, spheroids, 72 hours

SMILES | IC50 [1] [nM] | IC50 [2] [nM] | IC50 [3] [nM] | IC50 (LoVo colon cancer cells) [nM] | IC50 [4] [nM] | Resistant factor (RF) [5] | IC50 [5] [nM] | IC50 [6] [nM] | Selectivity index (SI) BCPAP (HEK293 cells [7]) | Selectivity index (SI) LoVo (HEK293 cells [7]) | Selectivity index (SI) PSN-1 (HEK293 cells [7]) | IC50 (HEK293 cells [7]) [nM] | IC50 (PSN-1 3D spheroids) [nM] | further results
[NH2][Pt]([NH2])([Cl])([Cl])([O]C(=O)CCCc1ccccc1)[O]C(=O)C(Cl)Cl [CPD, ctc-[Pt(NH3)2(PhB)(DCA)Cl2]] | 1060 ± 130 | 110 ± 30 | 100 ± 20 | 19 ± 10 | 330 ± 40 | 1.8 | 580 ± 60 | 370 | 14.2 | 82.1 | 15.6 | 1560 ± 220 | 950 ± 1120 | Average IC50, times lower than cisplatin ([6]; average over six cell lines): 34 fold; Average IC50, times lower than oxaliplatin ([6]; average over six cell lines): 9 fold; Average IC50, times more potent than CVD ([6]; average over six cell lines): 3 fold; Resistant factor (RF) [8]: < 2; Stability in phosphate buffer solution [9]: stable; COX-2 inhibition (COX-2): 8.4%; Cells with hypopolarized mitochondrial membrane potential (PSN-1 cells [10]): 25–30%; Increase in cellular basal ROS production (PSN-1 cells [11]): only slightly inferior to that elicited by antimycin A; Induction of cellular ROS production (HEK293 cells [12]): barely effective; Effect on mitochondrial membrane potential (HEK293 cells [13]): barely effective; Times more active than cisplatin in PSN-1 3D spheroids (PSN-1 3D spheroids; 72 hours): more than 50 fold
[NH2][Pt]([NH2])([Cl])[Cl] [CDDP, Cisplatin] | 15300 ± 2630 | 7380 ± 1530 | 18200 ± 3110 | 9150 ± 2070 | 2220 ± 1020 | 10.1 | 22500 ± 3150 | 12500 | 2.6 | 2.1 | 1.1 | 19600 ± 2330 | 52600 ± 3780 | –
O=C1[O][Pt]2([NH][C@@H]3CCCC[C@H]3[NH]2)[O]C1=O [OXP, oxaliplatin] | 1150 ± 430 | 4370 ± 1070 | 8250 ± 3420 | 1010 ± 340 | 1530 ± 880 | 2.0 | 3060 ± 1000 | 3230 | – | – | – | – | – | –
